What all share (experiment): NCI anticancer screen, dose series, 48 h
In test [1] the test system is ACHN renal.
In test [2] the test system is HCT-15 colon.
Test [3] concerns HOP-62 NSCLC.
In test [4] the test system is HS 578T breast.
For test [5], the system named is NCI-H522 lung.
In test [6] the test system is OVCAR-3 ovarian.
Test [7] deals with OVCAR-8 ovarian.
Test [8] has as its system PC-3 prostate.
Test [9] has as its system SNB-19 CNS.
The subject of test [10] is TK-10 renal.

“And” between values parts separate entries of the source, which are not always exact repeats. Equal entries are not always repeated.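 Tested at 5 concentrations; 48 h exposure; 96-well plates; endpoints linearly interpolated, else capped at highest concentration. At the GI50, growth is halved. TGI: concentration producing complete growth inhibition.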 A value given as a limit tells only on which side of the number the result lay.

Take `Cc1ccc2c(c1)S(=O)(=O)c1ccc3ccccc3c1N2`: the TGI in test [1], in test [2], in test [3], in test [4], in test [5] and in [6] was above 100 µM in each case. For the same molecule, the TGI in test [7], in test [8], in [9] and in [10] was above 100 µM each time.
For the molecule `CCOc1cccc(-c2nc(N)nc(Nc3ccccc3SSc3ccccc3Nc3nc(N)nc(-c4cccc(OCC)c4)n3)n2)c1`, the GI50 was 2.14 µM in test [1]; 2.18 µM in [2]; 1.57 µM in test [3]; 6.37 µM in test [4]; 7.77 µM in [5]; 5.37 µM in test [6]. The GI50 in test [7] was 4.43 µM; in test [8] it was 0.671 µM; in [9] it was 4.94 µM; in [10], 6.26 µM. Further, the TGI in [1] was 5.8 µM; in test [2], above 100 µM; in [3] it was 4.46 µM; in test [4] it was above 100 µM; in test [5], 48.9 µM; in test [6], above 100 µM. The TGI in test [7] was above 100 µM; in test [8], 15.3 µM; in test [9], above 100 µM; in test [10], 86.8 µM.
As to `COc1cc(/C=C/C(=O)N2CCN(C(=O)c3cc(OC)c(OC)c(OC)c3)CC2)ccc1OCCCOc1cc2c(cc1OC)C(=O)N1CCC[C@H]1C=N2`, the GI50 is 2.64 µM in [1]; 3.18 µM in test [2]; 0.326 µM in test [3]; 0.31 µM in test [4]; 0.213 µM in test [5]; 0.219 µM in [6]. Besides, the GI50 in test [7] was 0.345 µM; in [8], 0.506 µM; in test [9] it was 0.362 µM; in [10], 0.45 µM. In addition, the TGI in [1] is above 35.3 µM; in test [2] it was 27.7 µM; in test [3] it was 0.933 µM; in test [4], 0.841 µM; in [5], 3.25 µM; in [6], 0.504 µM. Also, the TGI in test [8] was above 34.3 µM; in test [9] it was above 40.3 µM; in [10] it was 4.37 µM.
Turning to `Cn1c(=O)c(Oc2ccc(F)cc2F)cc2cnc(NC3CCS(=O)(=O)CC3)nc21`, the GI50 in test [1] is above 14.3 µM; in [2] it was above 25 µM; in test [3] it was above 14.8 µM; in test [4] it was above 25 µM; in [5], above 14.3 µM; in [6] it was above 25 µM. In addition, the GI50 in test [7], in [8], in test [9] and in test [10] was above 25 µM each time. Moreover, the TGI in [1], in test [2], in [3], in [4], in test [5] and in test [6] was above 25 µM each time. In addition, the TGI in test [7], in [8], in [9] and in test [10] was above 25 µM throughout.
On to `CCCCCCCCn1ccc2cc(NC(=O)Cn3cc(CN4CCCCC4)nn3)ccc21`, for which the GI50 was 1.72 µM in test [1]; 1.96 µM in [2]; 1.89 µM in test [3]; 1.96 µM in test [4]; 1.8 µM in test [5]; 3.42 µM in test [6]. Besides, the GI50 in [7] is 2.98 µM; in [8] it was 1.43 µM; in test [9], 1.82 µM; in test [10] it was 2.44 µM. For the same molecule, the TGI in [1] was determined as 3.19 µM; in [2] it was 4.11 µM; in test [3] it was 3.75 µM; in test [4], 4.84 µM; in test [5] it was 4 µM; in test [6] it was 13.3 µM. For the same molecule, the TGI in test [7] is 9.3 µM; in test [8], 3.05 µM; in [9], 3.65 µM; in [10] it was 6.63 µM.
Regarding `COc1ccc(C2=NN(C(=O)c3cc(OC)c(OC)c(OC)c3)C(c3ccc(N(C)C)cc3)C2)cc1` (configuration not stated), the GI50 in test [1] is 0.622 µM; in test [2] it was 0.426 µM; in test [3], 0.57 µM; in test [4], 0.266 µM; in [5] it was 0.352 µM; in [6], 0.284 µM. Further, the GI50 in test [7] was 2.42 µM; in test [8] it was 0.529 µM; in [9], 1.84 µM; in [10] it was 0.682 µM. Also, the TGI in test [1] was above 100 µM; in [2], above 100 µM; in [4], 1.56 µM; in test [6], 4.7 µM; in [7], above 100 µM; in test [8], above 100 µM. Further, the TGI in test [9] and in test [10] was above 100 µM each time.
As for `CC(=O)OC12COC1CC(O)C1(C)C(=O)C(O)C3=C(C)C(O)CC(O)(C(OC(=O)c4ccccc4)C21)C3(C)C` (configuration not stated), the TGI was above 100 µM in [1]; above 100 µM in test [2]; above 100 µM in test [3]; 6.15 µM in [4]; 11.2 µM in test [5]; above 39.2 µM in test [6]. The TGI in [7] was above 100 µM; in test [8] it was above 28.5 µM; in [9], above 100 µM; in test [10], above 100 µM. For the same molecule, the GI50 in test [4] is 1.36 µM.
For `N#C[Se]CCCNS(=O)(=O)C1CC2C=CC1C2` (configuration not stated), the GI50 in test [1] was 1.48 µM; in test [2] it was 1.47 µM; in [3], 0.482 µM; in [4], 0.409 µM; in [5], 1.78 µM; in test [6], 1.47 µM. For the same molecule, the GI50 is 0.511 µM in test [7], 0.704 µM in test [8], 1.05 µM in test [9] and 0.403 µM in [10]. In addition, the TGI in [1] was 2.85 µM; in test [2] it was 3.65 µM; in test [3] it was 1.82 µM; in [4], 1.87 µM; in test [5], 4.2 µM; in [6] it was 3.1 µM. The TGI in test [7] turned out to be 5.06 µM; in [8], 3.83 µM; in test [9] it was 2.91 µM; in test [10], 2.33 µM.
Turning to `O=C(O)c1ccc(C(=O)O)c(C(=O)Nc2ccc3c(c2)C(=O)c2ccccc2-3)c1`, the TGI in test [1], in test [2], in [3], in [4], in test [5] and in test [6] was above 100 µM each time. The TGI in [7], in [8], in test [9] and in test [10] was above 100 µM each time.
Turning to `CC(C)(C)c1c2c(c(C(C)(C)C)c3c1OCN(Cc1ccccc1)C3)OCN(Cc1ccccc1)C2`, the TGI is 51.1 µM in test [1]; 33.3 µM in [2]; 53.5 µM in test [3]; 55.9 µM in test [4]; 23.2 µM in test [5]; 32.4 µM in [6]. Further, the TGI is 77.3 µM in test [7], 38 µM in test [8], 34.7 µM in test [9] and 32.5 µM in test [10].
For `CC(=O)c1cc(C(=O)c2ccc3c(c2)Sc2ccccc2N3)c2cc(C)ccn12`, the GI50 in test [1] was 0.0816 µM; in test [2] it was 0.0704 µM; in test [3], 0.146 µM; in test [4], 0.084 µM; in [5], 0.0412 µM; in [6] it was 0.0323 µM. In addition, the GI50 in test [7] was 0.451 µM; in [8], 0.0506 µM; in test [9], 0.183 µM; in [10], above 100 µM. The TGI is above 100 µM in [1]; above 100 µM in [2]; above 100 µM in test [3]; above 100 µM in test [4]; above 100 µM in test [5]; 0.112 µM in test [6]. The TGI in test [7], in [8], in test [9] and in test [10] was above 100 µM each time.
For the molecule `O=C(c1ccco1)c1c(C(F)(F)F)n([O-])c2ccc(Cl)cc2[n+]1=O`, the GI50 in test [1] is 0.137 µM; in [2], 0.372 µM; in [3], 0.194 µM; in [4] it was 1.49 µM; in test [5], 1.4 µM; in [6] it was 1.11 µM. For the same molecule, the GI50 in test [7] was 0.799 µM; in test [8], 0.294 µM; in test [9], 1.58 µM; in [10], 0.363 µM. Also, the TGI is 0.482 µM in [1]; 1.72 µM in test [2]; 0.617 µM in [3]; 4.37 µM in test [4]; 3.92 µM in test [6]; 2.1 µM in [7]. Besides, the TGI in test [8] amounted to 1.07 µM; in test [9] it was 5.67 µM; in test [10], 1.02 µM.
Regarding `O=C1c2cccc(NCCN=Cc3ccccc3O)c2C(=O)c2c(NCCN=Cc3ccccc3O)cccc21`, the GI50 was 1.32 µM in [1]; 2.23 µM in test [2]; 0.663 µM in [3]; 0.838 µM in [4]; 0.278 µM in test [5]; 0.514 µM in test [6]. Further, the GI50 in [7] was 0.369 µM; in test [8] it was 1.03 µM; in test [9] it was 0.776 µM; in [10], 1.71 µM. The TGI in test [1] was determined as 8.82 µM; in test [2] it was 12 µM; in [3], 3.89 µM; in test [4], 3.98 µM; in test [5] it was 1.38 µM; in test [6], 2.09 µM. Further, the TGI in test [7] was 2.47 µM; in [8] it was 5.87 µM; in [9], 3.54 µM; in [10], 5.52 µM.
For `O=C(Nc1n[nH]c2nnc(-c3cccnc3)cc12)C1CC1`, the GI50 is 3.88 µM in test [1]; above 20.3 µM in test [2]; 10.1 µM in test [3]; 0.0833 µM in test [4]; above 5.13 µM in test [5]; 0.114 µM in test [6]. For the same molecule, the results for the GI50 in test [7], in test [8] and in test [9] were 7.65 µM, 6.44 µM and above 11.9 µM, respectively. Moreover, the TGI in test [1] is above 25 µM; in test [2], above 25 µM; in test [3], above 25 µM; in [4] it was above 9.38 µM; in test [5], above 25 µM; in [6], above 18.4 µM. Further, the TGI in [7], in test [8], in test [9] and in [10] was above 25 µM in each case.
Take `O=c1oc2ccc(Br)cc2c(=O)n1-c1ccc(I)cc1F`: the GI50 in test [1] is 0.401 µM; in test [2], 0.4 µM; in test [3], 0.774 µM; in test [4] it was 0.287 µM; in test [5] it was 0.277 µM; in test [6] it was 0.336 µM. The GI50 in test [7] was 0.362 µM; in [8] it was 1.13 µM; in test [9], 0.363 µM; in test [10], 0.631 µM. The TGI in test [1] amounted to 6.04 µM; in [2], 5.96 µM; in test [3], 7.76 µM; in test [4] it was 1.36 µM; in test [5], 1.65 µM; in test [6] it was 8.52 µM. In addition, the TGI was 5.98 µM in [7], 5.86 µM in [8], above 70 µM in [9] and 7.39 µM in test [10].
For `COc1cc2c(cc1OC)C1Cc3cc(OC)c(OC)cc3C(C2)N1C`, the TGI in test [1] is above 100 µM; in [2], above 100 µM; in test [3], above 100 µM; in test [4] it was above 75 µM; in [5] it was above 100 µM; in test [6], above 100 µM. Besides, the TGI in [7] was above 100 µM; in test [8], above 75 µM; in test [9], above 100 µM; in [10], above 100 µM. Moreover, the GI50 in test [10] was 36.3 µM and > 100 µM.
In the case of `O=C(Nc1ccccc1)c1cc(S(=O)(=O)Nc2nc3ccccc3o2)c(SCc2ccccc2)cc1Cl`, the GI50 was 18.2 µM in [1]; 17 µM in test [2]; 20.2 µM in [3]; 14.5 µM in [4]; 25.2 µM in [5]; 19.9 µM in test [6]. In addition, the GI50 in [7] was 24.5 µM; in test [8] it was 21.7 µM; in test [9], 37 µM; in test [10], 13.9 µM. In addition, the TGI is 37 µM in test [1]; 34 µM in test [2]; 42.5 µM in test [3]; 44.3 µM in [4]; 65 µM in test [5]; 40 µM in test [6]. Further, the TGI was 65 µM in test [7], 46.7 µM in test [8], above 100 µM in test [9] and 28.2 µM in test [10].

Values taken from PubChem BioAssay (NCI).
